We go through one compound from US6355677B1, “Adrenoleukodystrophy treatments and drug screening” (The Johns Hopkins University, priority 1998, dated 2002).

Series [1] relates to human primary fibroblasts. Kind of series: Toxicity in cultured cells. The note with it: data not shown. The format is cell-based. The source says:
(§1) The genotypes of the X-ALD patients included midssense, nonsense, ftame shift and deletion mutations and all of the main clinical phenotypes.

For series [2], the system named is mouse primary fibroblasts. In words: Toxicity in cultured cells. It counts as cell-based. The note with it: data not shown.
Source text: as §1

The test system of series [3] is ALDP. In words: ALDP stabilization, immunofluorescence with anti-ALDP antibody. It counts as cell-based, human. The note with it: X-ALD fibroblasts with destabilizing missense mutations (A626T, R660W), 5 mM for up to 10 days.
The test system of series [4] is ALDP. In words: Semi-quantitative RT-PCR, human primary fibroblasts. The note with it: normal fibroblasts, 5 mM, 2 days. It counts as cell-based. The method, then:
(§2) Semi-quantitative RT-PCR was done on the mRNA isolated from these cells (FIG. 1). […] In addition, the expression of acyl-CoA oxidase (AOX), the rate-limiting enzyme in VLCFA β-oxidation, was not affected. Although previous studies have reported that ALDR mRNA was not detectable in fibroblasts by either northern or RT-PCR analyses, those RT-PCR studies used about 66 ng of CDNA; we used about 250 ng of cDNA.
(§3) Total RNA from tissue culture cells (10^6-10^7 cells/sample) was isolated using TRizol Reagent™ (Life Technologies), treated with DNase I (100-200 units in 40 mM HC, 10mM NaC, 6 mM MgCl2, pH 7.3), incubated at 37° C. for 30 min, extracted with pheno/chloroform, and precipitated with isopropanol. cDNA was generated using MMLV reverse transcriptase (RT) (Life Technologies). PCR was done in the linear range of amplification (determined for each primerpair-cDNA combination). For each cDNA sample, a ‘cocktail’ was prepared, containing PCR buffer (Promega), 200 µM of each DNTP, 1.5 mM MgCl2, 250 ng cDNA, 0.25 U of Taq polymerase (Promega) and […]. The ‘cocktail’ was divided into separate tubes containing cDNA specific primers.
(§4) The PCR primers used are listed below. In the parentheses, h indicates human and m, mouse; this is followed by the gene name, product size and annealing temperature. For primer sequences, F is forward and R is reverse. (hALD, 249, 64° C.) F: 5′-[…]-3′, R: 5′-[…]-3′; (mALD, 526, 59° C.) F: 5′-[…]-3′, R: 5′-[…]-3′; (hPMP70, 405, 60° C.) F: 5′-[…]-3′, R: 5′-[…]-3′; (mPMP70, 405, 60° C.) F: 5′-TTr[…]-3′, R: 5′-[…]-3′; (hALDR, 312, 56° C.) F: 5-[…]-3′, R: 5′-[…]-3′; (mALDR, 711, 57° C.) F: 5′-[…]-3′, R: 5′-[…]-3′; (hPMP69, 319, 60° C.) F: 5′-[…]-3′, R: 5-[…]-3′; (hAOX, 405, 60° C.) F: 5′-[…]-3′, R: 5′[…]-3′; (mAOX, 247, 60° C.) F: 5′-[…]r[…]-3′, R: 5′-[…]-3′; (hPPARα, 347, 60° C.) F: 5-[…]r[…]rCC-3′, R: 5′-[…]-3′; (mFPPARa, 268, 60° C.) F: 5′-GATTr[…]-TGAGG-3, R: 5′-[…]-3′; (hPex11α 658, 55° C.) F: 5-[…]-3′, R: 5′-[…]-3′; (mpex11α, 720, 55° C.) F: 5′-[…]r[…]-3′, R: 5′-[…]-3′; (β-Actin, 460, 62° C.) F:5′-[…]-3′, R: 5′-[…]-3, (glyceraldehyde 3-phosphate dehydrogenase (GAPDH), 528, 62° C.) F: 5′-[…]-3, R: 5′-[…]-3′. β-Actin and GAPDH primers were used for both human and mouse analyses.

The test system of series [5] is ALDR mRNA. The series is described as above. The format is cell-based. The note with it: normal and X-ALD fibroblasts, 5 mM, 2 days, relative to β-actin. The protocol: as §2, §3, §4
The subject of another series is PMP69. The description is as above. The format is cell-based. The note with it: X-ALD or normal fibroblasts, 5 mM, 2 days. The protocol: as §2, §3, §4
The subject of series [6] is PMP70. The series is described as above. The format is cell-based. The note with it: X-ALD or normal fibroblasts, 5 mM, 2 days. The method, then:
as §2, §3, §4

Series [7] concerns acyl-CoA oxidase (AOX). The description is as above. It counts as cell-based. The note with it: 5 mM. The method, then: as §2, §3, §4
Series [8] concerns ALDP. Kind of series: Semi-quantitative RT-PCR, mouse primary fibroblasts. It counts as cell-based. The note with it: normal fibroblasts, 5 mM, 2 days. The protocol: as §2, §3, §4
Series [9] has as its system ALDR mRNA. The series is described as above. The note with it: normal and X-ALD fibroblasts, 5 mM, 2 days, relative to GAPDH. The format is cell-based. The method, then: as §2, §3, §4
For series [10], the system named is PMP70. The series is described as above. It counts as cell-based. The note with it: X-ALD or normal fibroblasts, 5 mM, 2 days. The protocol:
as §2, §3, §4

Series [11] relates to acyl-CoA oxidase (AOX). The description is as above. The note with it: 5 mM, 2 days. It counts as cell-based. The method, then:
as §2, §3, §4

Another series concerns PPARα. Described as above. The note with it: mouse X-ALD fibroblasts, 5 mM, 2 days. It counts as cell-based. The protocol: as §3
(§5) The PCR primers used are listed below. In the parentheses, h indicates human and m, mouse; this is followed by the gene name, product size and annealing temperature. For primer sequences, F is forward and R is reverse. […]

For the next series, the system named is Pex11α. The series is described as above. The format is cell-based. The note with it: normal or X-ALD mouse fibroblasts, 10 day exposure to 5 mM; data not shown. The method, then: as §3, §5
For series [12], the system named is human primary fibroblasts. In words: Phytanic acid oxidation ([2,3-3H]-phytanic acid). The format is cell-based. The note with it: 5 mM, 10 days. The method, then:
Phytanic acid oxidation occurs exclusively in the peroxisomal matrix and can therefore serve as a marker for peroxisomal function. […] SCP2 is a 15-kDa protein located exclusively in the peroxisomal matrix.
For VLCFA measurements, total lipids were extracted, converted to methyl esters, purified by TLC and subjected to capillary GC analysis as described. Duplicate assays were set up independently and were assayed on different days. C24:0 β-oxidation activity of human and mouse fibroblasts and human lymphoblastoid cells was determined by measuring their capacity to degrade [1-^14C]-C24:0 fatty acid (American Radiolabeled Chemicals, St. Louis, Mo.) to water-soluble products as described. Phytanic acid oxidation was measured as described. Cells were incubated with [2,3-^3H]-phytanic acid for 24 hours, and the release of ^3H-H2O to the aqueous medium was determined (activity in pmol/hr per mg protein).

For series [13] the following is noted: used for many years in patients; cited from earlier work.

Entries after “also recorded” stand apart in the source; their conditions may differ.

As for `O=C(O)CCCc1ccccc1` [4-PBA, 4-Phenyl butyrate], the Toxic concentration result in series [1] and in series [2] was “exceeding 7.5 mM” throughout. In addition, in the series on ALDP [3], the “Detectable ALDP after treatment” value is “did not result in detectable levels of ALDP”. Moreover, the ALDP expression level result in the series with ALDP [4] was “little, if any, effect”; in the series with ALDP [8], “little, if any, effect”. The “ALDR mRNA level” value in the series with ALDR mRNA [5] and with ALDR mRNA [9] was “substantially increased; also recorded: substantial increase” in each case. Moreover, in the series on PMP69, the PMP69 expression level result was “little, if any, effect”. Further, the PMP70 expression level entry in the series on PMP70 [6] is listed as “little, if any, effect”; in the series with PMP70 [10], “little, if any, effect”. Moreover, the values for the AOX expression entry in the series with acyl-CoA oxidase (AOX) [7] (2 days), with acyl-CoA oxidase (AOX) [7] (10 days) and in the series with acyl-CoA oxidase (AOX) [11] were “unchanged; also recorded: not affected”, “remained unchanged” and “unchanged; also recorded: not affected”, respectively. Further, the PPARα expression entry with PPARα is listed as “increased”. In addition, the Pex11α transcripts entry in the series on Pex11α is reported as “undetectable”. In addition, the “Increase in phytanic acid oxidation” value in [12] (X-ALD human primary fibroblasts) and in series [12] (normal human primary fibroblasts) was “twofold” each time. Also, the Side effects entry in series [13] is reported as “few, if any, side effects”.
